Results as given in patent US10111890B2, “9-aminomethyl minocycline compounds and uses thereof” (Paratek Pharmaceuticals, Inc., priority 2016, dated 2018).
Values joined by “and” are separate entries in the source; they are usually repeats but may differ in a detail not shown here. Identical values can stand only once.

What was measured:
[1] = system: ABSSSI known or suspected to be due to Gram-positive pathogens; assay: Phase 3 oral omadacycline vs oral linezolid in ABSSSI: Early Clinical Response 48-72 hours after first dose; type: in vivo, human; conditions: for Early Clinical Success, %: micro-mITT, % of N1; for Difference (95% CI) in Early Clinical Success rate: omadacycline minus linezolid
[2] = Phase 3 oral omadacycline vs oral linezolid in ABSSSI: safety (adverse events, TEAEs, vital signs, ECG, laboratory); type: in vivo; conditions: safety population
From the text: An Adverse Event (AE) is any untoward, undesired, or unplanned event in the form of signs, symptoms, disease, or laboratory or physiologic observations occurring in a person given a test article or in a clinical study. […] An AE includes, but is not limited to, the following: any clinically significant worsening of a preexisting condition; an AE occurring from overdose of a test article, whether accidental or intentional; overdose is a dose greater than that specified in the protocol; an AE occurring from abuse (e.g., use for nonclinical reasons) of a test article; and an AE that has been associated with the discontinuation of the use of a test article.
The severity (or intensity) of an AE was classified using the following criteria:
Concerning relatedness, causality (i.e., whether there was a reasonable possibility that test article caused the event) for all AEs and SAEs was assessed.
Safety variables include the incidence rate of AEs, change in vital signs, ECG parameters and laboratory test results obtained during the course of the study. For safety analyses, subjects were analyzed according to the treatment actually received.
Summary tables were provided for all treatment-emergent adverse events (TEAEs). A TEAE is defined as an AE with a start date and time on or after the first dose of test article. […] Additional tabulations provide summaries by SOC and PT of subjects experiencing SAEs, severe TEAEs, TEAEs judged to be related to test article, TEAEs leading to discontinuation of test article, and TEAEs of special interest.
The following variables were analyzed descriptively: Vital signs (systolic and diastolic BP, pulse rate, body temperature, respiratory rate), including change from Screening by visit; Clinically notable vital signs (meeting predefined criteria as specified in the SAP) by visit. Subjects with notable vital signs data were listed.
ECG data (RR interval, PR interval, QRS interval, QTc, QTc Bazett's Correction Formula [QTcB], and QTc Fridericia's Correction Formula [QTcF]) was summarized descriptively at each scheduled evaluation, and for the overall worst post-Screening value. Changes from Screening at each visit that a 12-lead ECG was obtained was also provided. An outlier analysis was conducted based on the worst post-Screening value.
The following variables were analyzed descriptively: Laboratory variables by visit; Change from Screening of laboratory variables by visit; and Clinically notable laboratory values (meeting predefined criteria specified in the SAP) by visit.

ABSSSI = assay: Earlier Phase 3 i.v.-to-oral omadacycline vs linezolid study in ABSSSI: clinical success; type: in vivo, human; conditions: i.v. with switch to oral
[3] = human, in vivo
[4] = 48-72 hours after first dose, mITT population
[5] = Cellulitis/erysipelas, actual type, 48-72 hours, mITT
[6] = Cellulitis/erysipelas, as randomized, 48-72 hours, mITT
[7] = Major Abscess, actual type, 48-72 hours, mITT
[8] = Major Abscess, as randomized, 48-72 hours, mITT
[9] = Wound Infection, actual type, 48-72 hours, mITT
[10] = Wound Infection, as randomized, 48-72 hours, mITT

## CN(C)c1cc(CNCC(C)(C)C)c(O)c2c1C[C@H]1C[C@H]3[C@H](N(C)C)C(O)=C(C(N)=O)C(=O)[C@@]3(O)C(O)=C1C2=O [Omadacycline, 9-[(2,2-dimethyl-propylamino)-methyl]-minocycline]
[1]; [4]
  Difference (95% CI) in Early Clinical Success rate, omadacycline minus linezolid: 5.0% and 5.0 (−0.2, 10.3) %
  Early Clinical Response: Clinical Failure: 26 (7.2) n (%)
  Early Clinical Response: Clinical Failure or Indeterminate: 45 (12.5) n (%)
  Early Clinical Response: Indeterminate: 19 (5.3) n (%)
[1]; 48-72 hours after first dose, mITT population (N = 360 per arm)
  Early Clinical Response: Clinical Success: 315 (87.5) n (%)
[1]; Cellulitis/erysipelas, actual type of infection, 48-72 hours, mITT
  Early Clinical Response: Clinical Success: 68 (79.1) n (%)
[1]; [5]
  Early Clinical Response: Clinical Failure: 8 (9.3) n (%)
  Early Clinical Response: Clinical Failure or Indeterminate: 18 (20.9) n (%)
  Early Clinical Response: Indeterminate: 10 (11.6) n (%)
[1]; [6]
  Early Clinical Response: Clinical Failure: 8 (9.8) n (%)
  Early Clinical Response: Clinical Failure or Indeterminate: 17 (20.7) n (%)
  Early Clinical Response: Indeterminate: 9 (11.0) n (%)
[1]; Cellulitis/erysipelas, type of infection as randomized, 48-72 hours, mITT
  Early Clinical Response: Clinical Success: 65 (79.3) n (%)
[1]; Major Abscess, actual type of infection, 48-72 hours, mITT
  Early Clinical Response: Clinical Success: 60 (93.8) n (%)
[1]; [7]
  Early Clinical Response: Clinical Failure: 1 (1.6) n (%)
  Early Clinical Response: Clinical Failure or Indeterminate: 4 (6.3) n (%)
  Early Clinical Response: Indeterminate: 3 (4.7) n (%)
[1]; [8]
  Early Clinical Response: Clinical Failure: 1 (1.6) n (%)
  Early Clinical Response: Clinical Failure or Indeterminate: 4 (6.3) n (%)
  Early Clinical Response: Indeterminate: 3 (4.7) n (%)
[1]; Major Abscess, type of infection as randomized, 48-72 hours, mITT
  Early Clinical Response: Clinical Success: 60 (93.8) n (%)
[1]; Wound Infection, actual type of infection, 48-72 hours, mITT
  Early Clinical Response: Clinical Success: 187 (89.0) n (%)
[1]; [9]
  Early Clinical Response: Clinical Failure: 17 (8.1) n (%)
  Early Clinical Response: Clinical Failure or Indeterminate: 23 (11.0) n (%)
  Early Clinical Response: Indeterminate: 6 (2.9) n (%)
[1]; [10]
  Early Clinical Response: Clinical Failure: 17 (7.9) n (%)
  Early Clinical Response: Clinical Failure or Indeterminate: 24 (11.2) n (%)
  Early Clinical Response: Indeterminate: 7 (3.3) n (%)
[1]; Wound Infection, type of infection as randomized, 48-72 hours, mITT
  Early Clinical Response: Clinical Success: 190 (88.8) n (%)
[1]; baseline pathogen Clostridium perfringens, 48-72 hours after first dose
  Early Clinical Success, %: (100.0) %
[1]; baseline pathogen Enterobacter cloacae, 48-72 hours after first dose
  Early Clinical Success, %: (100.0) %
[1]; baseline pathogen Enterococcus faecalis VSE, 48-72 hours after first dose
  Early Clinical Success, %: (85.7) %
[1]; baseline pathogen Enterococcus faecalis, 48-72 hours after first dose
  Early Clinical Success, %: (87.5) %
[1]; baseline pathogen Enterococcus faecium VSE, 48-72 hours after first dose
  Early Clinical Success, %: (100.0) %
[1]; baseline pathogen Enterococcus faecium, 48-72 hours after first dose
  Early Clinical Success, %: (100.0) %
[1]; baseline pathogen Escherichia coli, 48-72 hours after first dose
  Early Clinical Success, %: (100.0) %
[1]; baseline pathogen Finegoldia magna, 48-72 hours after first dose
  Early Clinical Success, %: (66.7) %
[1]; baseline pathogen Klebsiella pneumoniae, 48-72 hours after first dose
  Early Clinical Success, %: (80.0) %
[1]; baseline pathogen MRSA, 48-72 hours after first dose
  Early Clinical Success, %: (93.3) %
[1]; baseline pathogen MSSA, 48-72 hours after first dose
  Early Clinical Success, %: (84.2) %
[1]; baseline pathogen Prevotella denticola, 48-72 hours after first dose
  Early Clinical Success, %: (100.0) %
[1]; baseline pathogen Prevotella melaninogenica, 48-72 hours after first dose
  Early Clinical Success, %: (100.0) %
[1]; baseline pathogen Staphylococcus aureus, 48-72 hours after first dose
  Early Clinical Success, %: (88.2) %
[1]; baseline pathogen Staphylococcus lugdunensis, 48-72 hours after first dose
  Early Clinical Success, %: (80.0) %
[1]; baseline pathogen Streptococcus agalactiae, 48-72 hours after first dose
  Early Clinical Success, %: (50.0) %
[1]; baseline pathogen Streptococcus anginosus group, 48-72 hours after first dose
  Early Clinical Success, %: (94.7) %
[1]; baseline pathogen Streptococcus anginosus, 48-72 hours after first dose
  Early Clinical Success, %: (100.0) %
[1]; baseline pathogen Streptococcus constellatus, 48-72 hours after first dose
  Early Clinical Success, %: (88.9) %
[1]; baseline pathogen Streptococcus intermedius, 48-72 hours after first dose
  Early Clinical Success, %: (91.3) %
[1]; baseline pathogen Streptococcus mitis, 48-72 hours after first dose
  Early Clinical Success, %: (100.0) %
[1]; baseline pathogen Streptococcus pyogenes, 48-72 hours after first dose
  Early Clinical Success, %: (82.8) %
[1]; baseline pathogen Streptococcus viridans group, 48-72 hours after first dose
  Early Clinical Success, %: (100.0) %
[1]; Cellulitis/erysipelas, actual type, mITT
  Difference (95% CI) in Early Clinical Success rate: 1.7 (−10.8, 14.3)
[1]; Cellulitis/erysipelas, as randomized, mITT
  Difference (95% CI) in Early Clinical Success rate: 1.9 (−10.8, 14.5)
[1]; Major Abscess, actual type, mITT
  Difference (95% CI) in Early Clinical Success rate: 5.0 (−5.4, 16.2)
[1]; Major Abscess, as randomized, mITT
  Difference (95% CI) in Early Clinical Success rate: 5.0 (−5.4, 16.2)
[1]; Wound Infection, actual type, mITT
  Difference (95% CI) in Early Clinical Success rate: 6.3 (−0.3, 13.1)
[1]; Wound Infection, as randomized, mITT
  Difference (95% CI) in Early Clinical Success rate: 6.1 (−0.6, 12.8)
[2]
  Subjects who died: 0 n (%)
  Subjects with at Least One Adverse Events (AE): 201 (54.6) n (%)
  Subjects with at Least One Drug-Related Serious TEAE: 0 n (%)
  Subjects with at Least One Drug-Related TEAE: 139 (37.8) n (%)
  Subjects with at Least One Serious TEAE: 5 (1.4) n (%)
  Subjects with at Least One Serious TEAE leading to Death: 0 n (%)
  Subjects with at Least One Serious TEAEs leading to premature discontinuation of test article: 3 (0.8) n (%)
  Subjects with at Least One Severe TEAE: 6 (1.6) n (%)
  Subjects with at Least One TEAE Leading to Study Drug Discontinuation: 6 (1.6) n (%)
  Subjects with at Least One TEAE leading to dose interruption: 0 n (%)
  Subjects with at Least One TEAE leading to premature discontinuation of study: 3 (0.8) n (%)
  Subjects with at Least One TEAE leading to premature discontinuation of test article: 6 (1.6) n (%)
  TEAE leading to study drug discontinuation: Cellulitis: 1 (0.3) n (%)
  TEAE leading to study drug discontinuation: Gastrointestinal Disorders (SOC): 1 (0.3) n (%)
  TEAE leading to study drug discontinuation: Haematemesis: 1 (0.3) n (%)
  TEAE leading to study drug discontinuation: Infections And Infestations (SOC): 4 (1.1) n (%)
  TEAE leading to study drug discontinuation: Nausea: 1 (0.3) n (%)
  TEAE leading to study drug discontinuation: Pregnancy: 1 (0.3) n (%)
  TEAE leading to study drug discontinuation: Pregnancy, Puerperium And Perinatal Conditions (SOC): 1 (0.3) n (%)
  TEAE leading to study drug discontinuation: Staphylococcal Bacteraemia: 1 (0.3) n (%)
  TEAE leading to study drug discontinuation: Subcutaneous Abscess: 1 (0.3) n (%)
  TEAE leading to study drug discontinuation: Vomiting: 1 (0.3) n (%)
  TEAE leading to study drug discontinuation: Wound Infection: 1 (0.3) n (%)
  TEAE: Alanine Aminotransferase Increased: 19 (5.2) n (%)
  TEAE: Aspartate Aminotransferase Increased: 17 (4.6) n (%)
  TEAE: Cellulitis: 12 (3.3) n (%)
  TEAE: Headache: 13 (3.5) n (%)
  TEAE: Wound Infection: 22 (6.0) n (%)
  Total Number of AEs: 468
  Total Number of TEAEs: 448
[2]; AE overview
  Subjects with at Least One TEAE: 197 (53.5) n (%)
[2]; all severities
  TEAE: Abdominal Pain Upper: 10 (2.7) n (%)
  TEAE: Diarrhea: 15 (4.1) n (%)
  TEAE: Nausea: 111 (30.2) n (%)
  TEAE: Vomiting: 62 (16.8) n (%)
[2]; highest severity Mild
  Subjects with at Least One TEAE, Mild: 120 (32.6) n (%)
  TEAE: Abdominal Pain Upper, Mild: 9 (2.4) n (%)
  TEAE: Abdominal Pain, Mild: 3 (0.8) n (%)
  TEAE: Diarrhea, Mild: 13 (3.5) n (%)
  TEAE: Gastrointestinal Disorders (SOC), Mild: 105 (28.5) n (%)
  TEAE: Nausea, Mild: 83 (22.6) n (%)
  TEAE: Vomiting, Mild: 44 (12.0) n (%)
[2]; highest severity Moderate
  Subjects with at Least One TEAE, Moderate: 71 (19.3) n (%)
  TEAE: Abdominal Pain Upper, Moderate: 1 (0.3) n (%)
  TEAE: Abdominal Pain, Moderate: 3 (0.8) n (%)
  TEAE: Diarrhea, Moderate: 2 (0.5) n (%)
  TEAE: Gastrointestinal Disorders (SOC), Moderate: 39 (10.6) n (%)
  TEAE: Nausea, Moderate: 28 (7.6) n (%)
  TEAE: Vomiting, Moderate: 18 (4.9) n (%)
[2]; highest severity Severe
  Subjects with at Least One TEAE, Severe: 6 (1.6) n (%)
  TEAE: Abdominal Pain Upper, Severe: 0 n (%)
  TEAE: Abdominal Pain, Severe: 0 n (%)
  TEAE: Diarrhea, Severe: 0 n (%)
  TEAE: Gastrointestinal Disorders (SOC), Severe: 0 n (%)
  TEAE: Nausea, Severe: 0 n (%)
  TEAE: Vomiting, Severe: 0 n (%)
[2]; most frequent (≥2%) TEAEs table
  Subjects with at Least One TEAE: 197 (53.5) n (%)
ABSSSI; 7-14 days after the last dose
  clinical success based on investigator's assessment of clinical response: 86.1%
ABSSSI; 48-72 hours after the first dose, FDA primary analysis population (N=627)
  clinical success based on a reduction of lesion size: 84.8%
ABSSSI; 7-14 days
  non-inferiority to linezolid: non-inferior
[3]
  discontinuation due to TEAE, % of subjects: 1.9%
  serious TEAEs, % of subjects: 3.4%
  treatment-emergent adverse events (TEAEs), % of subjects: 48.3%
